From patent US7351861B2 (priority 2002, dated 2008)

Test system: luciferase light signal from pIB29EL (yopE-luxAB)
Assay: microbe, parasite or virus in culture
Assay type: cell-based, Yersinia pseudotuberculosis
Conditions: for inhibition at 10 µM: read-out: Inhibition (%) of the luciferase light signal, 10 μM; for inhibition at 20 µM: read-out: Inhibition (%) of the luciferase light signal, 20 μM; for inhibition at 50 µM: read-out: Inhibition (%) of the luciferase light signal, 50 μM; for inhibition at 100 µM: read-out: Inhibition (%) of the luciferase light signal, 100 μM; for inhibition at 5 µM: read-out: Inhibition (%) of the luciferase light signal, 5 μM
[1] = Yersinia pseudotuberculosis, strain pIB29EL, Table 2C
[2] = 10 μM, strain pIB29EL, Table 2C
[3] = 20 μM, strain pIB29EL, Table 2C
[4] = 50 μM, strain pIB29EL, Table 2C
[5] = 100 μM, strain pIB29EL, Table 2C

Structure (SMILES)	inhibition at 10 µM [1] [%]	inhibition at 20 µM [1] [%]	inhibition at 50 µM [1] [%]	inhibition at 100 µM [1] [%]	Inhibition (%) of the luciferase light signal (5 μM, strain pIB29EL, Table 2C) [%]	Inhibition (%) of the luciferase light signal [2] [%]	Inhibition (%) of the luciferase light signal [3] [%]	Inhibition (%) of the luciferase light signal [4] [%]	Inhibition (%) of the luciferase light signal [5] [%]	also measured
CC1(C)S[C@@H]2[C@H](NC(=O)C(C(=O)O)c3ccccc3)C(=O)N2[C@H]1C(=O)O (stereo partly shown) [Carbenicillin, reference compound]										IC50 (Yersinia pseudotuberculosis, read-out: IC50 (concentration resulting in 50% reduction of luciferase light emission)): 15 µM; Inhibition of light-emission (in words) (known antibiotics, pIB29EL): dose-dependent inhibition of light-emission
O=C(N/N=C/c1cc(Br)cc(Br)c1O)c1cccnc1 [Compound 7]										Inhibition (%) of the luciferase light signal (10 μM, pIB29EL, Table 2A): 25%; Inhibition (%) of the luciferase light signal (20 μM, pIB29EL, Table 2A): 20%; Inhibition (%) of the luciferase light signal (50 μM, pIB29EL, Table 2A): 68%; Inhibition (%) of the luciferase light signal (100 μM, pIB29EL, Table 2A): 93%
O=C(N/N=C/c1c(O)ccc2ccccc12)c1ccccc1 [Compound 9]										Inhibition (%) of the luciferase light signal (10 μM, pIB29EL, Table 2A): 9%; Inhibition (%) of the luciferase light signal (20 μM, pIB29EL, Table 2A): 21%; Inhibition (%) of the luciferase light signal (50 μM, pIB29EL, Table 2A): 41%; Inhibition (%) of the luciferase light signal (100 μM, pIB29EL, Table 2A): 49%
C=CCc1cccc(/C=N/NC(=O)c2ccc([N+](=O)[O-])cc2)c1O [Compound 10]										Inhibition (%) of the luciferase light signal (10 μM, pIB29EL, Table 2A): 30%; Inhibition (%) of the luciferase light signal (20 μM, pIB29EL, Table 2A): 49%; Inhibition (%) of the luciferase light signal (50 μM, pIB29EL, Table 2A): 56%; Inhibition (%) of the luciferase light signal (100 μM, pIB29EL, Table 2A): 57%
CCCCCCc1cc(/C=N/NC(=O)c2ccc([N+](=O)[O-])cc2)c(O)cc1O [Compound 11]										Inhibition (%) of the luciferase light signal (10 μM, pIB29EL, Table 2A): 30%; Inhibition (%) of the luciferase light signal (20 μM, pIB29EL, Table 2A): 42%; Inhibition (%) of the luciferase light signal (50 μM, pIB29EL, Table 2A): 69%; Inhibition (%) of the luciferase light signal (100 μM, pIB29EL, Table 2A): 80%
O=C(N/N=C/c1cc(O)ccc1O)c1ccco1 [Compound 12]										Inhibition (%) of the luciferase light signal (10 μM, pIB29EL, Table 2A): 12%; Inhibition (%) of the luciferase light signal (20 μM, pIB29EL, Table 2A): 16%; Inhibition (%) of the luciferase light signal (50 μM, pIB29EL, Table 2A): 41%; Inhibition (%) of the luciferase light signal (100 μM, pIB29EL, Table 2A): 65%
O=C(N/N=C/c1ccc(O)cc1O)c1cc2ccccc2cc1O [Compound 13]										Inhibition (%) of the luciferase light signal (10 μM, pIB29EL, Table 2A): 26%; Inhibition (%) of the luciferase light signal (20 μM, pIB29EL, Table 2A): 47%; Inhibition (%) of the luciferase light signal (50 μM, pIB29EL, Table 2A): 69%; Inhibition (%) of the luciferase light signal (100 μM, pIB29EL, Table 2A): 73%
CC(=O)Oc1ccc(I)cc1C(=O)Nc1ccc(Cl)cc1 [Compound 16]										Inhibition (%) of the luciferase light signal (5 μM (first of two columns headed 5), pIB29EL, Table 2B): 65%; Inhibition (%) of the luciferase light signal (5 μM (second of two columns headed 5), pIB29EL, Table 2B): 97%; Inhibition (%) of the luciferase light signal (10 μM, pIB29EL, Table 2B): 98%; Inhibition (%) of the luciferase light signal (20 μM, pIB29EL, Table 2B): 97%
CC(=O)Oc1c(I)cc(I)cc1C(=O)Nc1ccc(F)cc1 [Compound 17]										Inhibition (%) of the luciferase light signal (10 μM, pIB29EL, Table 2A): 36%; Inhibition (%) of the luciferase light signal (20 μM, pIB29EL, Table 2A): 42%; Inhibition (%) of the luciferase light signal (50 μM, pIB29EL, Table 2A): 89%; Inhibition (%) of the luciferase light signal (100 μM, pIB29EL, Table 2A): 90%
CC(=O)Oc1c(I)cc(I)cc1C(=O)Nc1ccccc1 [Compound 18]										Inhibition (%) of the luciferase light signal (10 μM, pIB29EL, Table 2A): 11%; Inhibition (%) of the luciferase light signal (20 μM, pIB29EL, Table 2A): 51%; Inhibition (%) of the luciferase light signal (50 μM, pIB29EL, Table 2A): 70%; Inhibition (%) of the luciferase light signal (100 μM, pIB29EL, Table 2A): 62%
CC(=O)Oc1c(Br)cc(Br)cc1C(=O)Nc1ccccc1F [Compound 19]										Inhibition (%) of the luciferase light signal (10 μM, pIB29EL, Table 2A): 0%; Inhibition (%) of the luciferase light signal (20 μM, pIB29EL, Table 2A): 0%; Inhibition (%) of the luciferase light signal (50 μM, pIB29EL, Table 2A): 45%; Inhibition (%) of the luciferase light signal (100 μM, pIB29EL, Table 2A): 70%
O=C(COc1ccccc1)N/N=C/c1c(O)ccc2ccccc12 [Compound 20]	2	5	19	48						
C/C(=N\NC(=O)c1ccc([N+](=O)[O-])cc1)c1cc(Br)cc(Br)c1O [Compound 21]	21	18	44	57						
O=C(Nc1ccc(Cl)cc1)c1cc(I)ccc1O [Compound 23]					70	75	83	80	78	
O=C(Nc1ccc(Cl)cc1)c1ccccc1O [Compound 24]	30	73	90	88						inhibition at 5 µM [1]: 7%
O=C(Nc1ccc(Cl)cc1)c1cc(I)cc(I)c1O [Compound 25]	92	93	100	98						inhibition at 5 µM [1]: 80%
O=C(Nc1ccc(SC(F)(F)F)cc1)c1cc(I)cc(I)c1O [Compound 26]	15	41	84	93						inhibition at 5 µM [1]: 15%
O=C(Nc1ccccc1F)c1cc(Br)cc(Br)c1O [Compound 27]	3	1	13	20						inhibition at 5 µM [1]: 9%

Structure (SMILES)	inhibition at 10 µM [1] [%]	inhibition at 20 µM [1] [%]	inhibition at 50 µM [1] [%]	inhibition at 100 µM [1] [%]	Inhibition (%) of the luciferase light signal (5 μM, strain pIB29EL, Table 2C) [%]	Inhibition (%) of the luciferase light signal [2] [%]	Inhibition (%) of the luciferase light signal [3] [%]	Inhibition (%) of the luciferase light signal [4] [%]	Inhibition (%) of the luciferase light signal [5] [%]	also measured
CCCCCCCc1ccc(NC(=O)c2cc(I)cc(I)c2O)cc1 [Compound 28]	90	99	99	99						inhibition at 5 µM [1]: 67%
CC(C)(C)c1ccc(NC(=O)c2cc(I)cc(I)c2O)cc1 [Compound 29]	18	21	30	28						inhibition at 5 µM [1]: 19%
CC(=O)Oc1cc(C)ccc1C(=O)Nc1ccccc1F [Compound 30]	15	35	63	83						inhibition at 5 µM [1]: 14%
O=C(Nc1ccccc1)c1cc(I)cc(I)c1O [Compound 31]					10	30	60	77	98	
CC(C)(C)c1ccc(NC(=O)c2c(O)c(Cl)cc(Cl)c2Cl)cc1 [Compound 32]	23	37	42	46						inhibition at 5 µM [1]: 14%
CC(=O)Oc1c(I)cc(I)cc1C(=O)Nc1ccc(SC(F)(F)F)cc1 [Compound 33]	70	68	69	71						inhibition at 5 µM [1]: 71%
CC(=O)Oc1c(Cl)cc(Cl)c(Cl)c1C(=O)Nc1ccc(SC(F)(F)F)cc1 [Compound 47]					55	61	73	90	90	
O=C(Nc1cc(Cl)ccc1F)c1cc(I)cc(I)c1O [Compound 48]					36	75	88	89	88	
CC(=O)Oc1c(I)cc(I)cc1C(=O)Nc1cc(Cl)ccc1F [Compound 49]					24	34	63	89	88	
O=C(Nc1ccc(Br)cc1)c1cc(I)ccc1O [Compound 50]					57	69	62	72	70	
CC(=O)Oc1ccc(I)cc1C(=O)Nc1ccc(Br)cc1 [Compound 51]					91	87	89	87	85	
O=C(Nc1ccc(SC(F)(F)F)cc1)c1cc2cc(Br)ccc2c(Br)c1O [Compound 53]					11	38	43	58	68	
O=C(Nc1ccc(SC(F)(F)F)cc1)c1cccc(Cl)c1O [Compound 54]					41	63	86	89	87	
O=C(Nc1ccc([N+](=O)[O-])cc1Cl)c1cc(Cl)ccc1O [Compound 55]					85	96	96	94	94	
CC(=O)Oc1ccc(Cl)cc1C(=O)Nc1ccc([N+](=O)[O-])cc1Cl [Compound 56]					77	90	91	91	90	
O=C(Nc1cccc(Cl)c1)c1cc(Cl)ccc1NS(=O)(=O)c1cccc2nsnc12 [Compound 57]					0	7	26	49	55	
O=C(Nc1ccc(Cl)cc1)c1ccccc1NS(=O)(=O)c1cccc2nsnc12 [Compound 58]					4	5	10	11	15	
